The values below come from patent US20250353816A1, “QUINOLINES AS MODULATORS OF POLRMT” (Pretzel Therapeutics, Inc., priority 2024, published 2025).

The test deals with POLRMT (Homo sapiens (Human), UniProt O00411). Put plainly: homogeneous TR-FRET assay of mitochondrial transcription (inhibition of POLRMT). Format: biochemical. Conditions: 7.5 nM POLRMT, 15 nM TFB2M, 30 nM TFAM, 60 minutes at 37° C. How it is done:
The inhibitory activity of the compounds of the present invention against POLRMT were determined by assays based on Bergbrede, T., et al., “An adaptable high-throughput technology enabling the identification of specific transcription modulators,” SLAC Discov., 22, 378-386 (2017).
The ability of some compounds of the present invention to inhibit POLRMT were determined in a homogeneous TR-FRET Assay using high-throughput screening in a 384-well plate format. This method is used to monitor the activity of mitochondrial transcription through measurement of its product, a 407 bp long RNA transcript. Detection of the product is facilitated by hybridization of two DNA-oligonucleotide probes to specific and adjacent sequences within the RNA product sequence. Upon annealing of the probes, two fluorophores are coupled directly to an acceptor nucleotide probe (ATTO647, 5′), or introduced via a coupled streptavidin with a biotinylated donor nucleotide probe (Europium cryptate) that is brought into sufficient proximity to serve as a fluorescence-donor-acceptor pair. Thus, a FRET signal at 665 nm is generated upon excitation at 340 nm.
Proteins used as transcription factors (POLRMT: NP_005026.3, TFAM: NP_003192.1, TFB2M: NP_071761.1) are diluted from their stocks to working concentrations of 1 μM, 20 μM and 4 μM respectively, in a dilution buffer containing 20 mM Tris-HCl (pH 8.0), 200 mM NaCl, 10% (v/v) glycerol, 1 mM Dithiothreitol (DTT), 0.5 mM EDTA.
DNA template is a pUC18 plasmid with the mitochondrial light strand promotor sequence (1-477) cloned between HindIII and BamHI sites. The DNA template is restriction linearized proximal to the promotor 3′-end (pUC-LSP).
The reaction mixture (10 uL) containing 7.5 nM POLRMT, 15 nM of TFB2M, 30 nM of TFAM, 0.5 nM of DNA template and 500 μM nucleotide triphosphate mix (NTPs) in a reaction buffer (containing 10 mM Tris-HCl (pH 7.5), 10 mM MgCl2, 40 mM NaCl, 10 mM DTT, 0.005% (w/v) Tween-20, 160 units/ml Rnase inhibitor and 0.1 mg/mL BSA) are dispensed to compounds in microplates, using a Thermo Multidrop® dispenser, and incubated at 37° C. in a VWR INCU-Line incubator for 60 minutes after mixing. No nucleotide triphosphate mix is added to negative control samples. Microplates with compounds to be tested in the assay are prepared from 10 mM compound stocks in 100% DMSO, equal amounts of DMSO without any compound are added to positive control and negative control samples.
During the incubation, a mix of the detection reagents is prepared in a buffer such that the enzymatic reaction is terminated due to chelating of Mg-ions and increased ionic strength, containing 50 mM Tris-HCl (pH 7.5), 700 mM NaCl, 20 mM EDTA, and 0.01% (w/v) Tween-20. Europium-streptavidin is pre-incubated with a 200-fold molar excess of a random sequence oligonucleotide to block unspecific binding of oligo, for two hours at ambient temperature in the dark. Afterwards, the blocked Europium-streptavidin is kept on ice until use.
At the end of the enzymatic reaction time, 5 μL detection oligo mix in the detection buffer is added, and assay plates are mixed and kept at ambient temperature for one hour, protected from light. The concentration of the Acceptor nucleotide oligo (e.g., ATTO647N-5′-[…]-3′ (SEQ ID NO: 1)) and Donor nucleotide oligo (e.g., bio-5′-AACACATCTCT(-bio)GCCAAACCCCA-bio-3′ (SEQ ID NO: 2)) in each assay well is 1 nM, and 3 nM, respectively.
After incubation with oligo mix, 5 μL of pre-blocked Europium-streptavidin reagent is dispensed to each assay well, assay plates are again mixed and kept at ambient temperature for one hour, protected from light.
The generated signal is measured with BMG Pherastar microtiter plate reader with a TRF light unit, using excitation at 340 nm, an integration time of 200 μs, and a delay time of […], before detection at 620 nm and 665 nm. The ratio of donor- and acceptor-fluorescence is used as a measure of the generated transcript product (i.e. enzymatic activity).
A general note: In TR-FRET formats the signal depends on donor and acceptor labels being close together.

Structures are written as SMILES. Some results are limits rather than exact numbers.

Sequence of POLRMT (O00411 42-1230): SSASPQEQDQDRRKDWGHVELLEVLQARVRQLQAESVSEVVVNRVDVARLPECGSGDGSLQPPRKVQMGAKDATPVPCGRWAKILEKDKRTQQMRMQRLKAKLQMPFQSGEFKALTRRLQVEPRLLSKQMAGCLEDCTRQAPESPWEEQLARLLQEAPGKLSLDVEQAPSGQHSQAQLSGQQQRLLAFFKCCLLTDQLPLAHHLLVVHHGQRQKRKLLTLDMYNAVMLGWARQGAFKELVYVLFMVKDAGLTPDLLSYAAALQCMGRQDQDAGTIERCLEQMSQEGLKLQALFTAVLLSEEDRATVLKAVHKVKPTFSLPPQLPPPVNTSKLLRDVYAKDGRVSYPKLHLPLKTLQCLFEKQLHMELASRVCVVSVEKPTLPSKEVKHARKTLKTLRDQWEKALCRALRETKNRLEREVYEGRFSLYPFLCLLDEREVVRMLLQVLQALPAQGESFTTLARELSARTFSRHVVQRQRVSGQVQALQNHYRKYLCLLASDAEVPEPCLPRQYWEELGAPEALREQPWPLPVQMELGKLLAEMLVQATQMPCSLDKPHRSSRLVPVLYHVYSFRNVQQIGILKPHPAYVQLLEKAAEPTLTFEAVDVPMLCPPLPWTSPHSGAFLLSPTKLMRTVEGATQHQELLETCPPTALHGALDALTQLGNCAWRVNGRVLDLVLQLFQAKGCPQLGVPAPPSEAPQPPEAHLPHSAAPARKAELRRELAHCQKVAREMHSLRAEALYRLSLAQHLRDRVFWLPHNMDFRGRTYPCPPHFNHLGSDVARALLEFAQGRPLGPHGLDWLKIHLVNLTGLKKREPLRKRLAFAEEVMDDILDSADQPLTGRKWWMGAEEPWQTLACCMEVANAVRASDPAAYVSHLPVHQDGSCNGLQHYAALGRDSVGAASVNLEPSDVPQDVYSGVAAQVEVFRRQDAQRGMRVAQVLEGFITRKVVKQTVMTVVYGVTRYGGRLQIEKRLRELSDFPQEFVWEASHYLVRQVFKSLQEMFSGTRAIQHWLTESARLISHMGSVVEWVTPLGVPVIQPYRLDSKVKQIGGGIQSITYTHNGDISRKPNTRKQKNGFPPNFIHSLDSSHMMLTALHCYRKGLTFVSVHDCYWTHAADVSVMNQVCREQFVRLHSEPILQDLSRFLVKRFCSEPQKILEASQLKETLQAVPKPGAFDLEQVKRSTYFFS

`CNC(=O)COC(C)c1ccc2c(-c3ccccc3C)ccnc2c1` (stereo not shown) [Example 57, N-methyl-2-(1-(4-(o-tolyl)quinolin-7-yl)ethoxy)acetamide] showed an IC50 of more than 100 µM.

The IC50 is the concentration that inhibits the measured activity by half. A higher IC50 goes with weaker potency in that assay.
